Assay results reported in patent US11930814B2, “Pesticidal mixtures comprising cyanosulfoximine compounds” (BASF SE, priority 2007, dated 2024).

Key:
Assay type in all cases: in vivo
[1] = test system: Mediterranean fruitfly (Ceratitis capitata); experiment: Test B.4: control of Mediterranean fruitfly, insect diet with eggs in microtiter plates; conditions: 5 days
Experimental: For evaluating control of Mediterranean fruitfly (Ceratitis capitata) the test unit consisted of well-microtiter plates containing an insect diet and 50-80 C. capitata eggs. The compounds or mixtures were formulated using a solution containing 75 wt % water and 25 wt % DMSO. Different concentrations of formulated compounds or mixtures were sprayed onto the insect diet at 5 μl, using a custom built micro atomizer, at two replications.
(§1) For experimental mixtures in these tests identical volumes of both mixing partners at the desired concentrations respectively, were mixed together.
After application, microtiter plates were incubated at 28±1° C., 80±5% RH for 5 days. Egg and larval mortality was then visually assessed.

[2] = test system: vetch aphid (Megoura viciae); experiment: Test B.1: control of vetch aphid on broad bean leaf disks in microtiter plates (contact or systemic); conditions: 5 days
Experimental: For evaluating control of vetch aphid (Megoura viciae) through contact or systemic means the test unit consisted of microtiter plates containing broad bean leaf disks. The compounds or mixtures were formulated using a solution containing 75 wt % water and 25 wt % DMSO. Different concentrations of formulated compounds or mixtures were sprayed onto the leaf disks at 2.5 μl, using a custom built micro atomizer, at two replications.
as §1
After application, the leaf disks were air-dried and 5-8 adult aphids placed on the leaf disks inside the microtiter plate wells. The aphids were then allowed to suck on the treated leaf disks and incubated at 23±1° C., 50±5% RH (relative humidity) for 5 days. Aphid mortality and fecundity was then visually assessed.

[3] = test system: green peach aphid (Myzus persicae); experiment: Test B.2: control of green peach aphid through systemic means, artificial diet under membrane in microtiter plates; conditions: 3 days
Excerpt: For evaluating control of green peach aphid (Myzus persicae) through systemic means the test unit consisted of microtiter plates containing liquid artificial diet under an artificial membrane.
The compounds or mixtures were formulated using a solution containing 75 wt % water and 25 wt % DMSO. Different concentrations of formulated compounds or mixtures were pipetted into the aphid diet, using a custom built pipetter, at two replications. For experimental mixtures in these tests identical volumes of both mixing partners at the desired concentrations respectively, were mixed together.
After application, 5-8 adult aphids were placed on the artificial membrane inside the microtiter plate wells. The aphids were then allowed to suck on the treated aphid diet and incubated at 23±1° C., 50±5% RH for 3 days. Aphid mortality and fecundity was then visually assessed.

[4] = test system: boll weevil (Anthonomus grandis); experiment: Test B.3: control of boll weevil, insect diet with eggs in microtiter plates; conditions: 5 days
Experimental: For evaluating control of boll weevil (Anthonomus grandis) the test unit consisted of well-microtiter plates containing an insect diet and 20-30 A. grandis eggs.
The compounds or mixtures were formulated using a solution containing 75 wt % water and 25 wt % DMSO. Different concentrations of formulated compounds or mixtures were sprayed onto the insect diet at 20 μl, using a custom built micro atomizer, at two replications.
as §1
After application, microtiter plates were incubated at 23±1° C., 50±5% RH for 5 days. Egg and larval mortality was then visually assessed.

[5] = 0.4 + 0 ppm (compound II + compound I), compound II alone
[6] = 2 + 0 ppm (compound II + compound I), compound II alone
[7] = 0 + 20 ppm (compound II + compound I), compound I alone
[8] = 0 + 0.8 ppm (compound II + compound I), compound I alone
[9] = 4 + 0 ppm (compound II + compound I), compound II alone
[10] = 200 + 0 ppm (compound II + compound I), compound II alone
[11] = 0.08 + 0 ppm (compound II + compound I), compound II alone

CC1(C)C(C=C(Cl)Cl)C1C(=O)OC(C#N)c1cccc(Oc2ccccc2)c1 (stereo not drawn) [Alphacypermethrin, alpha-cypermethrin]
Average Control % [1, 5]: 0%
Average Control % [2, 6]: 0%

CS(=O)(Cc1ccc(Cl)nc1)=NC#N (centres unmarked) [Compound C.I.1]
Average Control % [3, 7]: 50%
Average Control % ([1]; 0 + 4 ppm (compound II + compound I), compound I alone): 0%
Average Control % [1, 7]: 0%
Average Control % [2, 8]: 0%
Average Control % [4, 7]: 0%

CC(c1ccc(Cl)nc1)S(C)(=O)=NC#N (centres unmarked) [Compound C.I.2]
Average Control % ([1]; 0 + 10 ppm (compound II + compound I), compound I alone): 0%
Average Control % [1, 7]: 0%
Average Control % [2, 8]: 0%

CNC(=O)c1cc(C#N)cc(C)c1NC(=O)c1cc(Br)nn1-c1ncccc1Cl [Compound II.A^13.1]
Average Control % [1, 5]: 0%

N#Cc1nn(-c2c(Cl)cc(C(F)(F)F)cc2Cl)c(N)c1[S+]([O-])C(F)(F)F (centres unmarked) [Fipronil, fipronil]
Average Control % [2, 6]: 25%

O=[N+]([O-])NC1=NCCN1Cc1ccc(Cl)nc1 [Imidacloprid, imidacloprid]
Average Control % [1, 9]: 0%
Average Control % [4, 6]: 25%

CC(C)(C)c1ccc(CSc2cnn(C(C)(C)C)c(=O)c2Cl)cc1 [Pyridaben, pyridaben]
Average Control % [1, 10]: 50%
Average Control % [2, 10]: 50%

CNC(=O)c1cc(Cl)cc(C)c1NC(=O)c1cc(Br)nn1-c1ncccc1Cl [Rynaxypyr]
Average Control % [3, 11]: 0%

CCOC(=O)OC1=C(c2cc(C)ccc2C)C(=O)N[C@]12CC[C@@H](OC)CC2 [Spirotetramat, spirotetramat]
Average Control % [3, 9]: 0%
Average Control % ([2]; 100 + 0 ppm (compound II + compound I), compound II alone): 50%

CN1COCN(Cc2cnc(Cl)s2)/C1=N\[N+](=O)[O-] [Thiamethoxam, thiamethoxam]
Average Control % [3, 11]: 0%
